One data set concerns the target CaVβ2a core (Rattus norvegicus, UniProt Q8VGC3). Briefly: Isothermal titration calorimetry, AID peptide:CaVβ2a binding. The note with it: for Kd: 150 mM KCl, 10 mM potassium phosphate, 20 μM peptide into 2 μM CaVβ2a core. The source says:
Having determined that the backbone staples are able to affect AID helix content (Figure 1) and are structurally compatible with the CaVβ-AID interaction (Figure 2), we used isothermal titration calorimetry (ITC) to investigate whether the AID staples impacted binding thermodynamics. […] (Figure 3A, Table 1). This binding reaction is driven by a favorable enthalpic component (ΔH = −15.6 ± 2.4 kcal mol^–1) that is opposed by a large entropic cost (ΔS = −16.7 ± 6.0 cal mol^–1 K^–1) that most likely results from the requirement to reduce the degrees of freedom of the highly disordered ligand upon binding.
Titrations were performed at 15 °C using a VP-ITC microcalorimeter (MicroCal). Samples were dialyzed overnight at 4 °C (Slide-A-Lyzer, 2 kDa molecular weight cutoff, Thermo Scientific) against 150 mM KCl and 10 mM potassium phosphate, pH 7.3. After 30 min centrifugation at 40 000 rpm at 4 °C, protein concentrations were determined by absorbance at 280 nm.[91] All samples were degassed for 5 min prior to loading into the calorimeter. CaV1.2 CaVβ2a core at a concentration of 2 μM was titrated with 20 μM modified or unmodified AID peptide with one 4 μL injection followed by 29 injections of 10 μL of titrant. To correct the baseline, heat of dilution from titrations of injectant into buffer was subtracted. Data were processed with MicroCal Origin 7.0 using a single site binding model.

The next data set concerns the target T1, CaV1.2:CaVβ3 (Oryctolagus cuniculus, UniProt P54286).
T1 construct: expressed in transfected cells; host or cells: Xenopus oocytes (mRNA injection)
As to the kind of experiment: Peptide injection competition, two-electrode voltage clamp, CaV1.2:CaVβ3 channels in Xenopus oocytes. The note with it: for V1/2, midpoint of activation: Ca2+ charge carrier. It is filed as cell-based, human CaV1.2; Xenopus oocytes. For orientation: Two-electrode voltage clamp is typically applied to oocytes expressing channels or transporters.

In another data set the target is CaV1.2-Y437A:CaVβ2a (Rattus norvegicus, UniProt Q8VGC3). As to the kind of experiment: Peptide injection competition, two-electrode voltage clamp, CaV1.2-Y437A:CaVβ2a channels in Xenopus oocytes. The note with it: 400 μM peptide; for ti300, percent inactivation at 300 ms / A1, relative amplitude of fast inactivation component / A2, relative amplitude of second inactivation component / τ1, fast inactivation time constant / τ2, second inactivation time constant: +20 mV; for ti300, percent inactivation at 300 ms / V1/2, midpoint of activation: Ca2+ charge carrier; for ti300, percent inactivation at 300 ms / A1, relative amplitude of fast inactivation component / A2, relative amplitude of second inactivation component / τ1, fast inactivation time constant / τ2, second inactivation time constant / V1/2, midpoint of activation / Imax, maximal current amplitude: mean ± SEM.

Data set [1] can be described thus: Circular dichroism of AID peptides (helical content). It is filed as physicochemical. The note with it: 70 μM, 4 °C, 50 mM KCl, 10 mM potassium phosphate, pH 7.3, 2 mm cuvette, triplicate points. The method, then:
Circular dichroism spectra were measured in a 2 mm path length quartz cuvette (Hellma), 50 mM KCl, and 10 mM KH2PO4/K2HPO4, pH 7.3, using an Aviv model 215 spectropolarimeter (Aviv Biomedical) equipped with a Peltier temperature controller. Wavelength scans from 320 to 190 nm were taken at 4 °C. Each point was determined in triplicate from the same sample and subtracted by the average of a triplicate buffer scan. Each sample was checked for purity by HPLC. Molar ellipticity was calculated as follows: θ = 100(Δm)/(Cnl), where Δm is the CD signal in millidegrees after buffer subtraction, C is the millimolar peptide concentration, n is the number of residues in the peptide, and l is the cuvette path length in centimeters.

Where [2] appears, read: ITC, 15 °C, pH 7.3, single site model, n = 3 (Cav1.2 AID), 2 (AID-CEN), 3 (AID-CAP).
Where [3] appears, read: ITC, 15 °C, pH 7.3, n = 3 (Cav1.2 AID), 2 (AID-CEN), 3 (AID-CAP).
Setting [4] is: 2.8 mM peptide, over 30 min postinjection.
[5] abbreviates: 5 min postinjection, 2.8 mM peptide, +20 mV, double exponential fit, mean ± SEM, N = 6 (AID-CAP), 7 (AID).
Setting [6] is: 5 min postinjection, 2.8 mM peptide, +20 mV, monoexponential fit, mean ± SEM, N = 6 (AID-CAP), 7 (AID).
[7] abbreviates: 5 min postinjection, 2.8 mM peptide, mean ± SEM, N = 6 (AID-CAP), 7 (AID).
Setting [8] is: 30 min postinjection, 2.8 mM peptide, +20 mV, monoexponential fit, mean ± SEM, N = 6 (AID-CAP), 7 (AID).
[9] abbreviates: 30 min postinjection, 2.8 mM peptide, mean ± SEM, N = 6 (AID-CAP), 7 (AID).

Starred links: 1 amine or outer side, 2 acyl side, 3 side chain; linkers in the order of their positions; H or OH if unused. Positions of bridges follow the written chain, without caps; N, C: chain ends. Residues, ends and D or L forms follow the SMILES beside them. No end group written: not given here. mXylylene = c1cc(C[*:1])cc(C[*:2])c1

One may read the Kd as the equilibrium constant for the complex coming apart. High values mean weaker binding, low ones tighter binding.

T1 sequence (P54286 whole entry): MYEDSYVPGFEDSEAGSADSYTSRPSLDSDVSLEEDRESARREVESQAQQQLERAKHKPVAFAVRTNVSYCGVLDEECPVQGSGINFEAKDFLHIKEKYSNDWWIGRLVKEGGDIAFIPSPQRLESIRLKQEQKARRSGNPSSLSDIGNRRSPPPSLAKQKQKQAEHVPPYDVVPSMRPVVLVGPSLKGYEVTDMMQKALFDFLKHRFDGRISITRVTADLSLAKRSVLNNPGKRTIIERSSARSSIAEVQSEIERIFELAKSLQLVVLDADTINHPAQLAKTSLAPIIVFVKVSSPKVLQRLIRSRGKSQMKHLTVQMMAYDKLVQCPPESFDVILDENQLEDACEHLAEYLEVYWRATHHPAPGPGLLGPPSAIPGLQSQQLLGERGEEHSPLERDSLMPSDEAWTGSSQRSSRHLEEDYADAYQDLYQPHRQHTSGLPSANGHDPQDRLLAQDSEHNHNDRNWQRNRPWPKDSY

Turning to `CC[C@H](C)[C@H](NC(=O)[C@H](Cc1c[nH]c2ccccc12)NC(=O)[C@H](CC(=O)O)NC(=O)[C@H](CC(C)C)NC(=O)[C@H](Cc1ccc(O)cc1)NC(=O)CNC(=O)[C@H](CCCCN)NC(=O)[C@H](CC(C)C)NC(=O)[C@H](CC(=O)O)NC(=O)[C@@H]1CSCc2cccc(c2)CSC[C@H](N)C(=O)N[C@@H](CO)C(=O)N2CCC[C@H]2C(=O)N[C@@H](CC(C)C)C(=O)N[C@@H](CCC(=O)O)C(=O)N1)C(=O)N[C@H](C(=O)N[C@@H](CCC(N)=O)C(=O)N[C@@H](C)C(=O)N[C@@H](CCC(=O)O)C(N)=O)[C@@H](C)O` [AID-CAP] (H-CSPLECDLKGYLDWITQAE-NH2; linker 1-6 via mXylylene), binding on CaVβ2a core (setting [2]) was characterised by a dissociation constant (Kd) of 5.1 ± 1.6 nM.

Regarding `CC[C@H](C)[C@H](NC(=O)[C@H](Cc1c[nH]c2ccccc12)NC(=O)[C@@H]1CSCc2cccc(c2)CSC[C@H](NC(=O)[C@H](CC(C)C)NC(=O)[C@H](CC(=O)O)NC(=O)[C@H](CCC(=O)O)NC(=O)[C@H](CCC(=O)O)NC(=O)[C@H](CC(C)C)NC(=O)[C@@H]2CCCN2C(=O)[C@H](CO)NC(=O)[C@H](C)N)C(=O)NCC(=O)N[C@@H](Cc2ccc(O)cc2)C(=O)N[C@@H](CC(C)C)C(=O)N1)C(=O)N[C@H](C(=O)N[C@@H](CCC(N)=O)C(=O)N[C@@H](C)C(=O)N[C@@H](CCC(=O)O)C(N)=O)[C@@H](C)O` [AID-CEN] (H-ASPLEEDLCGYLCWITQAE-NH2; linker 9-13 via mXylylene), at CaVβ2a core (setting [2]), binding was characterised by a dissociation constant (Kd) of 5.2 ± 1.5 nM.

Take CQQLEEDLKGYLDWITQAE-NH2 [AID]: on CaVβ2a core (setting [2]), the dissociation constant Kd came out at 6.6 ± 2 nM and the “N (binding stoichiometry)” value is reported as 0.94 ± 0.07. In addition, on CaVβ2a core (setting [3]), the ΔH result is on record as “–15.6 ± 2.4 kcal mol^–1” and the ΔS result was “–16.7 ± 6.0 cal mol^–1 K^–1”. Moreover, the “Kd/Kd CaV1.2 AID” value at CaVβ2a core (ratio of Kd to that of CaV1.2 AID) is 1. At CaV1.2:CaVβ3 (2.8 mM peptide vs 4 mM HotA), the “P vs HotA, Figure 7B, E, F (ti300, Imax)” value is < 0.001 and the “P vs HotA, Figure 7C, D (inactivation τ, ΔV1/2)” value is given as < 0.05. On CaV1.2:CaVβ3 (setting [4]), the “change in channel inactivation kinetics, in words” value is “changed from one having two components to a monoexponential process” and the “current rundown, in words” value was “strongly increased current rundown”. On CaV1.2:CaVβ3 (setting [5]), this compound yielded an A1 of 54.0 ± 2.7%, an A2 of 34.1 ± 1.4%, a τ1 of 40.0 ± 5.2 ms and a τ2 of 354.4 ± 119.2 ms. On CaV1.2:CaVβ3 (setting [6]), this compound returned an A1 of 76.9 ± 3.1% and a τ1 of 62.6 ± 7.6 ms. Further, the “ti300, percent inactivation at 300 ms” value at CaV1.2:CaVβ3 (5 min postinjection, 2.8 mM peptide, +20 mV, mean ± SEM, N = 6 (AID-CAP), 7 (AID)) is recorded as 73.4 ± 2.0%. For the same compound, on CaV1.2:CaVβ3 (setting [7]), the “V1/2, midpoint of activation” value turned out to be 10.4 ± 2.2 mV and the “Imax, maximal current amplitude” value was “–0.860 ± 0.096”. At CaV1.2:CaVβ3 (setting [8]), this compound registered an A1 of 65.0 ± 4.0% and a τ1 of 118.2 ± 11.0 ms. Further, the “ti300, percent inactivation at 300 ms” value on CaV1.2:CaVβ3 (30 min postinjection, 2.8 mM peptide, +20 mV, mean ± SEM, N = 6 (AID-CAP), 7 (AID)) was 49.8 ± 1.9%. In addition, on CaV1.2:CaVβ3 (setting [9]), the “V1/2, midpoint of activation” value worked out at 21.0 ± 2.0 mV and the “Imax, maximal current amplitude” value is reported as “–0.116 ± 0.010”. The “effect on CaV1.2α1:CaVβ3 interaction, in words” value on CaV1.2:CaVβ3 (30 min postinjection, AID, AID-CAP 2.8 mM, HotA 4 mM) is listed as “near complete disruption of the CaV1.2α1:CaVβ3 interaction”. The “P vs HotA, all panels of Figure 5 (ti300, A1, ΔV1/2, Imax)” value at CaV1.2-Y437A:CaVβ2a is listed as < 0.001. Moreover, on CaV1.2-Y437A:CaVβ2a (30 min postinjection), the “effect on inactivation / CaVβ binding, in words” value was “interfered completely with CaVβ binding”; the “ti300, percent inactivation at 300 ms” value is recorded as 44.8 ± 2.1%; the “A1, relative amplitude of fast inactivation component” value is on record as 24.5 ± 3.0%; the “A2, relative amplitude of second inactivation component” value is 31.0 ± 1.9%. Besides, at CaV1.2-Y437A:CaVβ2a (30 min postinjection), the “τ1, fast inactivation time constant” value stood at 53.3 ± 14.4 ms; the “τ2, second inactivation time constant” value was 304.0 ± 50.9 ms; the “V1/2, midpoint of activation” value is given as 15.1 ± 2.0 mV; the “Imax, maximal current amplitude” value was “–0.242 ± 0.021”. The “rundown of Imax” value at CaV1.2-Y437A:CaVβ2a (over 30 min postinjection, vs water or HotA) was “consistently higher rundown”. Further, at CaV1.2-Y437A:CaVβ2a (5 min postinjection), the “ti300, percent inactivation at 300 ms” value was found to be 64.9 ± 1.9%; the “A1, relative amplitude of fast inactivation component” value was found to be 48.5 ± 1.8%; the “A2, relative amplitude of second inactivation component” value is 24.1 ± 1.6%; the “τ1, fast inactivation time constant” value amounted to 35.0 ± 1.5 ms. For the same compound, at CaV1.2-Y437A:CaVβ2a (5 min postinjection), the “τ2, second inactivation time constant” value worked out at 251.5 ± 16.1 ms; the “V1/2, midpoint of activation” value was 2.9 ± 1.7 mV; the “Imax, maximal current amplitude” value was “–0.883 ± 0.111”. Also, the “CD spectrum / helical content, in words” value in data set [1] is “absent”.

The record behind these values is paper PMC5481814, “Stapled Voltage-Gated Calcium Channel (CaV) α-Interaction Domain (AID) Peptides Act As Selective Protein–Protein Interaction Inhibitors of CaV Function” (ACS Chemical Neuroscience, 2017).
